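Results reflect a 48-hour exposure of cells in 96-well plates to compound at five concentrations. TGI is the concentration that stops growth completely.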
Key:
Test in all cases: inhibition of tumour cell growth, NCI panel, 48 h
SNB-78 CNS = test system: SNB-78 CNS
DLD-1 colon = test system: DLD-1 colon
M19-MEL melanoma = test system: M19-MEL melanoma
OVCAR-3 ovarian = test system: OVCAR-3 ovarian
HCT-15 colon = test system: HCT-15 colon
HCT-116 colon = test system: HCT-116 colon
LOX IMVI melanoma = test system: LOX IMVI melanoma
SN12C renal = test system: SN12C renal
MDA-MB-435 = test system: MDA-MB-435
PC-3 prostate = test system: PC-3 prostate

Row | Structure (SMILES) | TGI (SNB-78 CNS) | TGI (DLD-1 colon) | TGI (M19-MEL melanoma) | TGI (OVCAR-3 ovarian) | TGI (HCT-15 colon) | TGI (HCT-116 colon) | TGI (LOX IMVI melanoma) | TGI (SN12C renal) | TGI (MDA-MB-435) | TGI (PC-3 prostate)
1 | O=C(NC1C2CC3CC(C2)CC1C3)/C(Cl)=C1/Sc2ccccc2NC1=O (centres undefined) | > 100 µM | > 100 µM | > 100 µM | > 100 µM | > 100 µM | > 100 µM | > 100 µM | > 100 µM | – | –
2 | CCN(CC)c1ccc(N=C2C=C(Cl)C(=O)c3ncccc32)c(C)c1 | 43.4 µM | 17 µM | 68.5 µM | 5.04 µM | 20.8 µM | 11.6 µM | 26.9 µM | 55.1 µM | – | –
3 | O=C(CNc1ccc2c(=S)c3ccccc3[nH]c2c1)Nc1ccccc1-c1ccccc1NC(=O)CNc1ccc2c(=S)c3ccccc3[nH]c2c1 | 82.9 µM | 23.9 µM | > 55.5 µM | 55 µM | 49.5 µM | 43.3 µM | 55.6 µM | 53.7 µM | > 52 µM | > 49.8 µM
4 | CCn1c(=O)c2ccccc2n2c(=O)c3cc4ccccc4cc3nc12 | > 100 µM | > 100 µM | > 100 µM | > 100 µM | > 100 µM | > 100 µM | > 100 µM | > 100 µM | – | –
